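In this assay, cells in 96-well plates receive the compound at five concentrations for 48 hours. Endpoints are linearly interpolated between the surrounding concentrations. The concentration for 50% growth inhibition is given as GI50.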 Calls of active or inactive are those of the source. Cut-off read from the data, not from the text of the source: active = GI50 up to about 1.1 µM and inactive = higher.
What was measured:
Assay in all cases: DTP human tumour cell line panel, 48 h
CAKI-1 = test system: CAKI-1
CCRF-CEM = test system: CCRF-CEM
COLO 205 = test system: COLO 205
EKVX = test system: EKVX
HCT-116 = test system: HCT-116
HOP-92 = test system: HOP-92
HT-29 = test system: HT-29
K562 = test system: K562
OVCAR-8 = test system: OVCAR-8
RPMI-8226 = test system: RPMI-8226
RXF 393 = test system: RXF 393
SF-268 = test system: SF-268
SF-539 = test system: SF-539
SK-MEL-2 = test system: SK-MEL-2
SK-OV-3 = test system: SK-OV-3
TK-10 = test system: TK-10
ACHN = test system: ACHN
NCI-H226 = test system: NCI-H226

Row | Compound | GI50 (CAKI-1) | GI50 (CCRF-CEM) | GI50 (COLO 205) | GI50 (EKVX) | GI50 (HCT-116) | GI50 (HOP-92) | GI50 (HT-29) | GI50 (K562) | GI50 (OVCAR-8) | GI50 (RPMI-8226) | GI50 (RXF 393) | GI50 (SF-268) | GI50 (SF-539) | GI50 (SK-MEL-2) | GI50 (SK-OV-3) | GI50 (TK-10) | GI50 (ACHN) | GI50 (NCI-H226)
1 | CN(C)c1ccc(/C=C(\NC(=O)c2ccccc2)c2nc3ccc4c(c3[nH]2)C(=O)c2ccccc2C4=O)cc1 | 9.1 µM (inactive) | 0.966 µM (active) | > 100 µM (inactive) | 48.1 µM (inactive) | 20.9 µM (inactive) | 12.8 µM (inactive) | 69.3 µM (inactive) | 26.9 µM (inactive) | 37.4 µM (inactive) | 3.18 µM (inactive) | 18.9 µM (inactive) | 7.14 µM (inactive) | 36.5 µM (inactive) | 61.8 µM (inactive) | 39 µM (inactive) | 17.1 µM (inactive) | – | –
2 | COc1ccc(NC(=O)C(C)Oc2ccc(OCC3CCCCC3)cc2)cc1 (stereo unspecified) | – | 71.1 µM (inactive) | – | – | > 100 µM (inactive) | – | > 100 µM (inactive) | 57.9 µM (inactive) | > 100 µM (inactive) | – | > 100 µM (inactive) | > 100 µM (inactive) | > 100 µM (inactive) | 81.1 µM (inactive) | > 100 µM (inactive) | > 100 µM (inactive) | 44.5 µM (inactive) | > 100 µM (inactive)
3 | COc1ccc(OC)c2[nH]c(Sc3c([N+](=O)[O-])ncn3C)nc12 | 17.1 µM (inactive) | – | 11.6 µM (inactive) | 23.1 µM (inactive) | 21.7 µM (inactive) | 16.9 µM (inactive) | 28.4 µM (inactive) | – | 17.6 µM (inactive) | – | 25.2 µM (inactive) | 26.5 µM (inactive) | 18 µM (inactive) | – | 35.2 µM (inactive) | 23.6 µM (inactive) | 27.8 µM (inactive) | 14.2 µM (inactive)
4 | O=C(CO)CC(=O)C(=O)Nc1nc([N+](=O)[O-])cs1 | > 100 µM (inactive) | > 100 µM (inactive) | > 100 µM (inactive) | > 100 µM (inactive) | > 100 µM (inactive) | > 10 µM (inactive) | > 100 µM (inactive) | > 100 µM (inactive) | > 100 µM (inactive) | > 100 µM (inactive) | > 100 µM (inactive) | > 100 µM (inactive) | > 100 µM (inactive) | > 100 µM (inactive) | > 100 µM (inactive) | > 100 µM (inactive) | > 100 µM (inactive) | > 100 µM (inactive)
5 | COC(=O)C(Cc1nc2ccccc2nc1O)C(=O)C(=O)Nc1ccc([N+](=O)[O-])cc1[N+](=O)[O-] (stereo unspecified) | 32.4 µM (inactive) | 13.2 µM (inactive) | 16.4 µM (inactive) | 20 µM (inactive) | 21.2 µM (inactive) | – | 19.4 µM (inactive) | 30.8 µM (inactive) | 22.3 µM (inactive) | 23.1 µM (inactive) | 18.3 µM (inactive) | 21.5 µM (inactive) | 20.6 µM (inactive) | 20.7 µM (inactive) | 24.9 µM (inactive) | 26.4 µM (inactive) | 18.2 µM (inactive) | 14.5 µM (inactive)
6 | CCC1(O)C(=O)OCc2c1cc1n(c2=O)Cc2cc3cc(OC)c(OC)cc3nc2-1 (stereo unspecified) | – | 2.81 µM (inactive) | 32.6 µM (inactive) | > 100 µM (inactive) | 22.3 µM (inactive) | > 100 µM (inactive) | > 100 µM (inactive) | 78.5 µM (inactive) | 82.4 µM (inactive) | 46.8 µM (inactive) | 16.9 µM (inactive) | 11.4 µM (inactive) | 5.74 µM (inactive) | – | 19.7 µM (inactive) | > 100 µM (inactive) | 4.5 µM (inactive) | 14.8 µM (inactive)
7 | CC1(C)CC(C)(C)CC(O)(C2(O)CC(C)(C)CC(C)(C)C2)C1 | – | > 100 µM (inactive) | > 100 µM (inactive) | > 100 µM (inactive) | > 100 µM (inactive) | – | > 100 µM (inactive) | > 100 µM (inactive) | > 100 µM (inactive) | > 100 µM (inactive) | – | > 100 µM (inactive) | > 100 µM (inactive) | – | > 100 µM (inactive) | > 100 µM (inactive) | > 100 µM (inactive) | > 100 µM (inactive)
8 | NCC(=O)OCN1C(=O)C2C3C=CC(C2C1=O)C1C2C(=O)N(COC(=O)CN)C(=O)C2C31 (stereo unspecified) | 32.9 µM (inactive) | 21 µM (inactive) | 18.2 µM (inactive) | > 100 µM (inactive) | 14.6 µM (inactive) | > 100 µM (inactive) | 36.6 µM (inactive) | 28.6 µM (inactive) | 20.3 µM (inactive) | 28 µM (inactive) | 24 µM (inactive) | 23.4 µM (inactive) | 18.9 µM (inactive) | 21.4 µM (inactive) | 60.8 µM (inactive) | 53.1 µM (inactive) | 24.5 µM (inactive) | 39.5 µM (inactive)
9 | COc1ccc(OC(C(=O)O)c2ccccc2)c2c1CCCC2=O (stereo unspecified) | > 100 µM (inactive) | > 100 µM (inactive) | > 100 µM (inactive) | > 100 µM (inactive) | > 100 µM (inactive) | > 100 µM (inactive) | > 100 µM (inactive) | > 100 µM (inactive) | > 100 µM (inactive) | > 100 µM (inactive) | – | > 100 µM (inactive) | > 100 µM (inactive) | > 100 µM (inactive) | > 100 µM (inactive) | > 100 µM (inactive) | > 100 µM (inactive) | –
10 | CC(=O)N(O)Cc1ccccc1 | > 100 µM (inactive) | > 100 µM (inactive) | > 100 µM (inactive) | – | > 100 µM (inactive) | > 100 µM (inactive) | > 100 µM (inactive) | > 100 µM (inactive) | > 100 µM (inactive) | > 100 µM (inactive) | > 100 µM (inactive) | > 100 µM (inactive) | > 100 µM (inactive) | – | > 100 µM (inactive) | > 100 µM (inactive) | > 100 µM (inactive) | > 100 µM (inactive)
11 | O=C(O)[C@@H]1CCCC[C@@H]1C(=O)N(C1CCCCC1)C1CCCCC1 | > 100 µM (inactive) | > 100 µM (inactive) | > 100 µM (inactive) | > 100 µM (inactive) | > 100 µM (inactive) | > 100 µM (inactive) | > 100 µM (inactive) | > 100 µM (inactive) | > 100 µM (inactive) | > 100 µM (inactive) | – | > 100 µM (inactive) | > 100 µM (inactive) | > 100 µM (inactive) | > 100 µM (inactive) | > 100 µM (inactive) | > 100 µM (inactive) | > 100 µM (inactive)
12 | c1ccc(CN(Cc2ccccn2)Cn2cccn2)nc1 | > 100 µM (inactive) | 29.5 µM (inactive) | 57.1 µM (inactive) | 34.9 µM (inactive) | 22.5 µM (inactive) | 52.6 µM (inactive) | – | 36.6 µM (inactive) | 32.8 µM (inactive) | 28.9 µM (inactive) | 57.5 µM (inactive) | 76.6 µM (inactive) | > 100 µM (inactive) | > 100 µM (inactive) | 43 µM (inactive) | > 100 µM (inactive) | 33 µM (inactive) | –
13 | CCc1oc2ccc(OC)c3c2c1C=CC=C3 | – | > 100 µM (inactive) | > 100 µM (inactive) | > 100 µM (inactive) | – | – | 77.3 µM (inactive) | > 100 µM (inactive) | > 100 µM (inactive) | > 100 µM (inactive) | 54.1 µM (inactive) | > 100 µM (inactive) | > 100 µM (inactive) | > 100 µM (inactive) | > 100 µM (inactive) | > 100 µM (inactive) | > 100 µM (inactive) | > 100 µM (inactive)
14 | Cc1nc2c(n1Cc1ccc(F)cc1)C(=O)c1ccccc1C2=O | – | 10.5 µM (inactive) | 18.9 µM (inactive) | 71 µM (inactive) | 6.89 µM (inactive) | – | 9.44 µM (inactive) | 5.61 µM (inactive) | 35.4 µM (inactive) | – | 14.9 µM (inactive) | 4.6 µM (inactive) | 6.98 µM (inactive) | 34.1 µM (inactive) | > 100 µM (inactive) | > 100 µM (inactive) | 28.9 µM (inactive) | 32.5 µM (inactive)
15 | Cc1ccc(NC(=O)C(=O)C(C(=O)c2ccc3ccccc3c2)C2OC(=O)c3ccccc32)cc1C (stereo unspecified) | 8.57 µM (inactive) | 5.2 µM (inactive) | 16.6 µM (inactive) | 63.5 µM (inactive) | 11.8 µM (inactive) | 14 µM (inactive) | 33 µM (inactive) | 13.8 µM (inactive) | 12.8 µM (inactive) | 4.7 µM (inactive) | – | 7.41 µM (inactive) | 3.02 µM (inactive) | 15.5 µM (inactive) | 26.9 µM (inactive) | 34.8 µM (inactive) | 32 µM (inactive) | 3.14 µM (inactive)
16 | O=C(/C=C/c1ccccc1Cl)NC1C=Nc2ccc([N+](=O)[O-])cc2NC1 (stereo unspecified) | 66.8 µM (inactive) | 12.7 µM (inactive) | 39.5 µM (inactive) | > 100 µM (inactive) | 59.6 µM (inactive) | – | – | 46.1 µM (inactive) | 55.8 µM (inactive) | 30.8 µM (inactive) | 97.7 µM (inactive) | > 100 µM (inactive) | > 100 µM (inactive) | > 100 µM (inactive) | > 100 µM (inactive) | > 100 µM (inactive) | 39.7 µM (inactive) | > 100 µM (inactive)
17 | CCOC(=O)N1C/C(=C\c2ccc(N(C)C)cc2)C(=O)/C(=C/c2ccc(N(C)C)cc2)C1 | > 100 µM (inactive) | > 100 µM (inactive) | > 100 µM (inactive) | > 100 µM (inactive) | > 100 µM (inactive) | > 100 µM (inactive) | > 100 µM (inactive) | > 100 µM (inactive) | > 100 µM (inactive) | > 100 µM (inactive) | > 100 µM (inactive) | > 100 µM (inactive) | > 100 µM (inactive) | > 100 µM (inactive) | > 100 µM (inactive) | > 100 µM (inactive) | > 100 µM (inactive) | –

— ChEMBL document CHEMBL1201862, “PubChem BioAssay data set” (2004)
